The source of these data is paper PMC3914206.

Assay [1] deals with T1, panel of 442 kinases (Homo sapiens, UniProt Q56UN5).
T1 construct: purchased KINOMEscan
T1 sequence (Q56UN5 1-1328): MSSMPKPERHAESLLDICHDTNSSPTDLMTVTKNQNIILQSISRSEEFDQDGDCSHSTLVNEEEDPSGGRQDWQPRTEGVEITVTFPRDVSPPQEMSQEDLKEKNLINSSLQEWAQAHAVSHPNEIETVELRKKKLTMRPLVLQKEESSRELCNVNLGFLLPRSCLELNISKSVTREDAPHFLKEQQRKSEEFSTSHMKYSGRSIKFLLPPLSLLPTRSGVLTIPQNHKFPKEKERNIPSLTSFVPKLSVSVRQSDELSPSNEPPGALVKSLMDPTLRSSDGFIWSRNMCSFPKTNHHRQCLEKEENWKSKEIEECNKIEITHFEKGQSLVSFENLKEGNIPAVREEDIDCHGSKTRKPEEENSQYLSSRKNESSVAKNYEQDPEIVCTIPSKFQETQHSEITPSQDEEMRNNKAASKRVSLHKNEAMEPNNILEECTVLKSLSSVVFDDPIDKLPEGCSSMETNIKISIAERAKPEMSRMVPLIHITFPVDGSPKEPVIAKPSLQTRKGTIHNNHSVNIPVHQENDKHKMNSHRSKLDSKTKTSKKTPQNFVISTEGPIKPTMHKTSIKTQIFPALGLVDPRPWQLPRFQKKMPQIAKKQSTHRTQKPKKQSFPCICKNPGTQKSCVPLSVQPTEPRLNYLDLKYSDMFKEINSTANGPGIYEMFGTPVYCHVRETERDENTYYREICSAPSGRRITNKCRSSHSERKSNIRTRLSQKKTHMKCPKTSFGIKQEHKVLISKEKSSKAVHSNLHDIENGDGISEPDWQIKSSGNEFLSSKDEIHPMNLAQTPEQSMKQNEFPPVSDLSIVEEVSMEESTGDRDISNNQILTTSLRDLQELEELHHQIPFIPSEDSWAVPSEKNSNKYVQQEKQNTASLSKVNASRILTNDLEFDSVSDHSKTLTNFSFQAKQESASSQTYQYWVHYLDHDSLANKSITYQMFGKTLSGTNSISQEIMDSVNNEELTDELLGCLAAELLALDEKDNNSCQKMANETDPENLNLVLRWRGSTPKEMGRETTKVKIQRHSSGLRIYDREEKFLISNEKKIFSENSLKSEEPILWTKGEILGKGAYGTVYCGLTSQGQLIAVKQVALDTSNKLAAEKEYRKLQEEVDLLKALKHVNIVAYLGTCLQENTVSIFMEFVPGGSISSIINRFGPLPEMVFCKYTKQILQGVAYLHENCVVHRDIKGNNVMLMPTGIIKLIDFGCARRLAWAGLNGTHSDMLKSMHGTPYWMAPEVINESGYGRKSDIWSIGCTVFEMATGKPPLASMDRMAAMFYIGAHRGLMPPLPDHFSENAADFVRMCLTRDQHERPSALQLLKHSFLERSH
It counts as binding. Details: KINOMEscan: ABL1(F317L)-phosphorylated / KINOMEscan: ABL1(H396P)-nonphosphorylated / KINOMEscan: ABL1(H396P)-phosphorylated / KINOMEscan: ABL1(M351T)-phosphorylated / KINOMEscan: ABL1(T315I)-phosphorylated / KINOMEscan: ABL1-nonphosphorylated / KINOMEscan: ABL1-phosphorylated / KINOMEscan: ACVR2A / KINOMEscan: ACVR2B / KINOMEscan: ADCK3 / KINOMEscan: ADCK4 / KINOMEscan: AKT1 / KINOMEscan: AKT3 / KINOMEscan: ALK / KINOMEscan: ARK5 / KINOMEscan: AURKA / KINOMEscan: AURKC / KINOMEscan: BIKE / KINOMEscan: BMPR1A / KINOMEscan: BMPR1B / KINOMEscan: BMX / KINOMEscan: BRK / KINOMEscan: BRSK1 / KINOMEscan: BRSK2 / KINOMEscan: CAMK1 / KINOMEscan: CAMK1D / KINOMEscan: CAMK1G / KINOMEscan: CAMK2A / KINOMEscan: CAMK2B / KINOMEscan: AAK1 / KINOMEscan: CAMK2D / KINOMEscan: CAMK2G / KINOMEscan: ABL1(F317I)-nonphosphorylated / KINOMEscan: ABL1(F317I)-phosphorylated / KINOMEscan: ABL1(F317L)-nonphosphorylated: unit: % Ctrl. Particulars: kinase YSK4; compound concentration 10 µM. The source says: (§1) We assessed the selectivity of members of this scaffold using the KINOMEscan methodology across a near comprehensive panel of 442 kinases [[18,27]].

The target in assay [2] is T2, panel of 442 kinases (Homo sapiens, UniProt Q9Y243).
T2 construct: purchased KINOMEscan
T2 sequence (Q9Y243 whole entry): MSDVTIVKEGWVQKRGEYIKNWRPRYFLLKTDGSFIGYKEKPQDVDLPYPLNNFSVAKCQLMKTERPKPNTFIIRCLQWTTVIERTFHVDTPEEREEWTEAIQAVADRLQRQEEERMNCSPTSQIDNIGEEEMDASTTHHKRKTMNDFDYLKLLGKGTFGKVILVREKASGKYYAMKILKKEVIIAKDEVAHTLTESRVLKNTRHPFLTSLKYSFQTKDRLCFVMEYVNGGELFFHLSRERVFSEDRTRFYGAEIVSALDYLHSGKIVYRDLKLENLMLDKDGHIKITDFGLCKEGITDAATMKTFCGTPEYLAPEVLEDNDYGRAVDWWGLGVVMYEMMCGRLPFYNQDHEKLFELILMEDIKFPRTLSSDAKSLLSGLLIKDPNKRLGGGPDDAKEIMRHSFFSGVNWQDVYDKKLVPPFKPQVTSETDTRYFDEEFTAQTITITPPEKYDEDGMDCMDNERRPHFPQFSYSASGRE
It counts as binding. Particulars: Compound Concentration 10 µM. Details: KINOMEscan: ABL1(F317L)-phosphorylated / KINOMEscan: ABL1(H396P)-nonphosphorylated / KINOMEscan: ABL1(H396P)-phosphorylated / KINOMEscan: ABL1(M351T)-phosphorylated / KINOMEscan: ABL1(T315I)-phosphorylated / KINOMEscan: ABL1-nonphosphorylated / KINOMEscan: ABL1-phosphorylated / KINOMEscan: ACVR2A / KINOMEscan: ACVR2B / KINOMEscan: ADCK3 / KINOMEscan: ADCK4 / KINOMEscan: AKT1 / KINOMEscan: AKT3 / KINOMEscan: ALK / KINOMEscan: ARK5 / KINOMEscan: AURKA / KINOMEscan: AURKC / KINOMEscan: BIKE / KINOMEscan: BMPR1A / KINOMEscan: BMPR1B / KINOMEscan: BMX / KINOMEscan: BRK / KINOMEscan: BRSK1 / KINOMEscan: BRSK2 / KINOMEscan: CAMK1 / KINOMEscan: CAMK1D / KINOMEscan: CAMK1G / KINOMEscan: CAMK2A / KINOMEscan: CAMK2B / KINOMEscan: AAK1 / KINOMEscan: CAMK2D / KINOMEscan: CAMK2G / KINOMEscan: ABL1(F317I)-nonphosphorylated / KINOMEscan: ABL1(F317I)-phosphorylated / KINOMEscan: ABL1(F317L)-nonphosphorylated: unit: % Ctrl.
Excerpt: as §1

Take `CCOc1cc(C(=O)N2CCC(N3CCN(C)CC3)CC2)ccc1Nc1ncc2c(n1)N(C1CCCC1)c1ccccc1C(=O)N2C` [Compound 26]: the “% Ctrl, YSK4” value in assay [1] turned out to be 100 % Ctrl. The “KINOMEscan: AKT3” value in assay [2] was 84. `COc1cc(C(=O)N2CCC(N3CCN(C)CC3)CC2)ccc1Nc1ncc2c(n1)N1CCc3cccc(c31)C(=O)N2C` [Compound 24]: the “% Ctrl, YSK4” value in assay [1] was 24 % Ctrl. `COc1cc(C(=O)N2CCC(N3CCN(C)CC3)CC2)ccc1Nc1ncc2c(n1)N(C)c1ccccc1C(=O)N2C` [15 (LRRK2-IN-1)]: the “% Ctrl, YSK4” value in assay [1] was 99 % Ctrl. Further, the “KINOMEscan: AKT3” value in assay [2] came to 100. Taken in the same sequence, the figures for `COc1cc(C(=O)N2CCC(N3CCN(C)CC3)CC2)ccc1Nc1ncc2c(n1)N(C1CCCC1)c1ccccc1C(=O)N2C` [Compound 25, 11-cyclopentyl-2-((2-methoxy-4-(4-(4-methylpiperazin-1-yl)piperidine-1-carbonyl)phenyl)amino)-5-methyl-5H-benzo[e]pyrimido[5,4-b][1,4]diazepin-6(11H)-one] were 100 % Ctrl and 100.
